Experimental findings from paper PMC8481799, “Lichen Polyphenolic Compounds for the Eradication of Candida albicans Biofilms” (Frontiers in Cellular and Infection Microbiology, 2021) are described below.

In brackets after ≈: the same amount, converted by molar mass. Several values for one entry are separate records, joined by “and”; a condition that tells them apart may be missing. Equal values may be shown once. Read-outs that look alike come from different tables or passages of the source.

In data set [1] the test system is red blood cells. In words: Hemolysis test. In kind it is cell-based. The following applies: at 100 µg/ml, 1 h. As for the experimental part: Then, 480 µl of each dilution was added to 20 µl of healthy red blood cells (Poitiers University Hospital, Hematology Department) in microtubes (final hematocrit = 4%). Some microtubes were reserved for controls: untreated red blood cells (negative control), cells treated with sterile distilled water (positive control = 100% hemolysis), and cells treated with 1% DMSO. After 1 h of incubation at 37°C, the tubes were centrifuged for 10 s at 14,000 g (A14 centrifuge Jouan) twice, and 200 µl of each supernatant was transferred into 96-well microtiter plates for colorimetric measurements at 450 nm (microplate reader LP400; Sanofi Diagnostics Pasteur) in order to determine the hemolysis percentages of each compound ([Evans et al., 2013]). All tests were performed in duplicate (at least two separate experiments).

In data set [2] the test system is HeLa human epithelial cervix cells. Put plainly: Growth inhibition of HeLa cells (MTT, 72 h). In kind it is cell-based. The following applies: 72 h. As for the experimental part:
HeLa human epithelial cervix cells were grown as monolayers at 37°C in a 5% CO2–95% air humidified atmosphere in RPMI supplemented with 10% FBS and […] gentamycin and streptomycin. Cells (2,000 cells/well) were seeded into each well of 96-well plates. […] The final DMSO concentration was less than 1% and tested as a negative control. Cell viability at 72 h was studied using the MTT assay. Then, 5 µl of MTT (10 mg/ml) was added to each well, and the plates were incubated for 4 h. The medium was then removed by aspiration, and 200 µl DMSO was added to each well. Proliferation was determined spectrophotometrically by measuring the absorbance at 540 nm. The percent of growth inhibition (%GI) was calculated as follows: %GI = [(DO (ʎ540 nm) control - DO (ʎ540 nm) treated)/DO (ʎ540 nm) control] * 100. All experiments were performed in duplicate with at least two replicate experiments.

The subject of data set [3] is Candida albicans biofilms on the maturation phase. In words: Anti-maturation test (XTT), compounds added after 2 h adherence. It is filed as cell-based, Candida albicans ATCC 28367. Particulars: Candida albicans. As for the experimental part: (§1) The anti-maturation and/or anti-biofilm activities of lichen compounds were assessed as previously described ([Millot et al., 2017]). Briefly, C. albicans (ATCC® 28367™) cultures were prepared at a final concentration of 1 × 10^7 cells/ml in yeast nitrogen base medium (Difco, Detroit, MI), supplemented with 50 mM glucose (Sigma, St Louis, MO) (YNB-Glc) from a preculture incubated overnight at 37°C without shaking.
(§2) A total of 200 µl of yeast culture was added to each well of untreated 96-well tissue culture plates. The plates were then incubated at 37°C for 2 h for the anti-maturation test and for 24 h for the anti-biofilm test. After aspiration of spent media and free-floating microorganisms, 250 μl per well of YNB-Glucose and 50 μl lichen compound samples obtained by serial twofold dilutions of each stock solution over the final range 200 to 0.097 μg/ml or 200 to 6.25 μg/ml were added to wells. Controls were also present: untreated yeasts (negative control) and yeasts treated with 2% DMSO. After 24 and/or 48 h of incubation at 37°C followed by aspiration of spent media and free-floating microorganisms, the wells were washed with phosphate-buffered saline (PBS) and observed under an inverted optical microscope (IX51® inverted microscope, Olympus). Biofilms were quantified using a metabolic assay based on the reduction of a tetrazolium salt (XTT) and absorbance measurements at 492 nm (microplate reader LP400; Sanofi Diagnostics Pasteur) ([Cocuaud, 2005]; [Dalleau et al., 2008]). The percent inhibition was determined from the absorbance values compared to the mean absorbance value obtained for untreated wells (100%).
(§3) Concentrations of lichen products inhibiting 50% of biofilms were determined for each tested sample by constructing a dose–response curve and selecting the closest tested concentration value above or equal to 50% inhibition. All anti-maturation and anti-biofilm tests were performed at least in triplicate in at least two separate experiments. The lichen compounds with MMIC50 or/and MBIC50 less than 100 μg/ml were considered as potentially useful.
(§4) Anti-maturation and anti-biofilm tests were performed with C. albicans ATCC® 28367™, as previously described, in 96-well microplates with evernic acid alone, cyclodextrin alone, and evernic acid included in cyclodextrin at over 50 to 1.5 µM final range of evernic acid (serial twofold dilution).

Data set [4] relates to Candida albicans preformed 24-h-old biofilm. Put plainly: Anti-biofilm test (XTT) on preformed 24-h-old biofilm. The following applies: Candida albicans, 24-h-old biofilm, read-out: Anti-biofilm activity MBIC50. It is filed as cell-based, Candida albicans ATCC 28367. The procedure:
as §1, §2, §3, §4

Setting [5] is: 24 h of treatment, read-out: Anti-maturation activity MMIC50.
The mark [6] stands for this setting: 48 h of treatment, read-out: Anti-maturation activity MMIC50.

`COc1cc(C)c(C(=O)Oc2cc(C)c(C(=O)O)c(O)c2C)c(O)c1C(=O)O` [Compound 2, Squamatic acid]: in data set [1], the “Hemolytic activity (%)” value came out at 0.4 ± 0.01%. For the same compound, the “Growth inhibition of HeLa cells (% inhibition)” value in data set [2] (at 12.5 µg/ml) stood at 14.8 ± 1.6%. For the same compound, the IC50 in data set [3] (setting [5]) was 50 µg/mL and 128 µM; in data set [3] (setting [6]), 12.5 µg/mL and 32 µM; in data set [4] (24 h, 24 h of treatment), greater than 200 µg/mL; in data set [4] (48 h, 48 h of treatment), greater than 200 µg/mL.

For `COc1cc(C)c(C(=O)Oc2c(C)c(C(=O)O)c(O)c(C=O)c2O)c(O)c1C(=O)O` [Compound 3, thamnolic acid], the “Hemolytic activity (%)” value in data set [1] is given as 4.0 ± 0.02%. Besides, the “Growth inhibition of HeLa cells (% inhibition)” value in data set [2] (at 12.5 µg/ml) is given as 11.0 ± 0.9%. Moreover, the IC50 in data set [3] (setting [5]) is 50 µg/mL and 120 µM; in data set [3] (setting [6]), 12.5 µg/mL and 30 µM; in data set [4] (24 h, 24 h of treatment) it was greater than 200 µg/mL; in data set [4] (48 h, 48 h of treatment) it was greater than 200 µg/mL.

As to `COC(=O)c1c(C)cc(OC(=O)c2c(C)cc(O)c(C=O)c2O)c(C)c1O` [Compound 4, atranorin], the “Hemolytic activity (%)” value in data set [1] turned out to be 0%. In addition, in data set [2] (at 100 µg/ml), the “Growth inhibition of HeLa cells (% inhibition)” value was determined as 84.5 ± 6.8%. The IC50 in data set [3] (incubation time not stated, read-out: MMIC50 (anti-maturation IC50)) was no less than 100 µg/mL; in data set [3] (setting [5]) it was greater than 200 µg/mL; in data set [3] (setting [6]), greater than 200 µg/mL; in data set [4] (24 h, 24 h of treatment), greater than 200 µg/mL; in data set [4] (48 h, 48 h of treatment) it was greater than 200 µg/mL.

As for `Cc1cc(OC(=O)c2c(C)cc(OC(=O)c3c(C)cc(O)cc3O)cc2O)cc(O)c1C(=O)O` [Compound 5, gyrophoric acid], the “Hemolytic activity (%)” value in data set [1] was 0.5 ± 0.27%. In addition, the “Growth inhibition of HeLa cells (% inhibition)” value in data set [2] (at 100 µg/ml) is listed as 70.0 ± 2.3%. Further, the IC50 was greater than 200 µg/mL in data set [3] (setting [5]); 100 µg/mL (≈ 213 µM) in data set [3] (setting [6]); greater than 200 µg/mL in data set [4] (24 h, 24 h of treatment); greater than 200 µg/mL in data set [4] (48 h, 48 h of treatment).

With `Cc1cc(O)c(C=O)c2c1C(=O)Oc1c(C)c(O)c3c(c1O2)C(O)OC3=O` (stereo not shown) [Compound 6, norstictic acid], the IC50 in data set [3] (setting [5]) was greater than 200 µg/mL; in data set [3] (setting [6]) it was greater than 200 µg/mL; in data set [4] (24 h, 24 h of treatment), greater than 200 µg/mL; in data set [4] (48 h, 48 h of treatment), greater than 200 µg/mL.

On to `Cc1cc(O)c(C=O)c2c1C(=O)Oc1c(CO)c(O)c3c(c1O2)[C@@H](O)OC3=O` [Compound 7, salazinic acid], for which the IC50 is greater than 200 µg/mL in data set [4] (24 h, 24 h of treatment) and greater than 200 µg/mL in data set [4] (48 h, 48 h of treatment).

With `COc1cc(C)c2c(c1C=O)Oc1c(c(C)c(O)c3c1C(O)OC3=O)OC2=O` (stereo not shown) [Compound 8, stictic acid], the IC50 in data set [3] (setting [5]) is 200 µg/mL (≈ 518 µM); in data set [3] (setting [6]), 200 µg/mL (≈ 518 µM); in data set [4] (24 h, 24 h of treatment), greater than 200 µg/mL; in data set [4] (48 h, 48 h of treatment), greater than 200 µg/mL.

Take `CCCCCC(=O)Cc1cc(O)cc2c1C(=O)Oc1cc(O)c(C(=O)O)c(CCCCC)c1O2` [Compound 9, physodic acid]: the IC50 in data set [3] (setting [5]) was greater than 200 µg/mL; in data set [3] (setting [6]) it was greater than 200 µg/mL; in data set [4] (24 h, 24 h of treatment), greater than 200 µg/mL; in data set [4] (48 h, 48 h of treatment), greater than 200 µg/mL.

Consider `CCCCCC(=O)Cc1cc(O)c(O)c2c1C(=O)Oc1cc(O)c(C(=O)O)c(CCCCC)c1O2` [Compound 10, 3-hydroxyphysodic acid], for which the IC50 is greater than 200 µg/mL in data set [3] (setting [5]); 100 µg/mL (≈ 206 µM) in data set [3] (setting [6]); greater than 200 µg/mL in data set [4] (24 h, 24 h of treatment); 100 µg/mL (≈ 206 µM) in data set [4] (48 h, 48 h of treatment).
